Results on 17 compounds are retold here after PubChem BioAssay (NCI).

Some test systems named below: SF-539 CNS; PC-3 prostate; 786-0 renal; SR leukemia; NCI-H226 lung; NCI/ADR-RES ovarian; U251 CNS; OVCAR-3 ovarian; OVCAR-5 ovarian; HS 578T breast.
Experiment in all cases: NCI tumour cell line growth inhibition, 48 h

Several values for one entry are separate records, joined by “and”; a condition that tells them apart may be missing. Identical values can stand only once.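 Compound exposure: 48 hours, 5 concentrations, 96-well plates. At the GI50, growth is halved. TGI is the concentration that stops growth completely.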

Regarding `CCS(=O)(=O)c1c2cc(OC)ccc2nc2ccc(OC)cc12`, the TGI with SF-539 CNS, with PC-3 prostate, with 786-0 renal, with SR leukemia, with NCI-H226 lung and with NCI/ADR-RES ovarian was over 100 µM each time. Further, the TGI in the test on U251 CNS, with OVCAR-3 ovarian and in the test with OVCAR-5 ovarian was over 100 µM in each case.

Take `CN1CCCCC(C(O)(c2ccccc2)c2ccccc2)C1=O` (configuration not stated): the TGI in the test on SF-539 CNS, in the test with 786-0 renal, in the test on SR leukemia, in the test with NCI-H226 lung, in the test with U251 CNS and in the test on OVCAR-3 ovarian was over 100 µM in each case. In the test with OVCAR-5 ovarian, the TGI is over 100 µM.

For the compound `Cc1cc([N+](=O)[O-])ccc1N=NC(=O)NNc1ccc([N+](=O)[O-])cc1C`, the TGI in the test with PC-3 prostate is 26.6 µM; with 786-0 renal it was 30.6 µM; with SR leukemia, 47.6 µM; in the test on NCI-H226 lung, 31.5 µM; with U251 CNS it was 32.9 µM; with OVCAR-3 ovarian, 34.4 µM. The compound further had a TGI in the test with OVCAR-5 ovarian of 31.8 µM.

As to `COc1ccc(C2=CN3CCC[C@H]3C=C2c2cc(O)c(OC)c(OC)c2)cc1OC`, the TGI in the test on SF-539 CNS was 0.0594 µM and 0.0927 µM; in the test on HS 578T breast, 0.036 µM; with PC-3 prostate it was 0.0538 µM; with SR leukemia, 0.0518 µM; with NCI-H226 lung it was 0.0294 µM; in the test with U251 CNS, 0.105 µM and 0.28 µM. Also, the TGI in the test on OVCAR-3 ovarian is 0.0669 µM and 0.0274 µM; with OVCAR-5 ovarian, 0.127 µM.

Consider `CN1CC2CC(C1)c1cccc(=O)n1C2` (configuration not stated), for which the TGI in the test on HS 578T breast, in the test on PC-3 prostate, in the test with 786-0 renal, in the test on NCI/ADR-RES ovarian, in the test on U251 CNS and with OVCAR-3 ovarian was over 100 µM in each case. Besides, the TGI with OVCAR-5 ovarian is over 100 µM.

As for `CN(C)CC(NC(NCS)C(=O)NCCNc1ccc(NCCNC(=O)C(NCS)NC(CN(C)C)OCCl)c2c1C(=O)c1c(O)ccc(O)c1C2=O)OCCl` (configuration not stated), the TGI in the test on HS 578T breast is 3.05 µM; with PC-3 prostate it was 1.46 µM; in the test with NCI-H226 lung, 0.418 µM and 1.61 µM; with NCI/ADR-RES ovarian it was 4.99 µM and 5.04 µM; with U251 CNS, 0.0575 µM. Further, the GI50 was 285 nM in the test with NCI-H226 lung, 287 nM with NCI/ADR-RES ovarian, 1360 nM in the test on OVCAR-3 ovarian and 713 nM in the test on OVCAR-5 ovarian.

For `COC(=O)n1c(CBr)c(Br)c2ccccc21`, the TGI is over 100 µM in the test with SF-539 CNS; over 100 µM in the test on 786-0 renal; 80.6 µM with SR leukemia; 33.6 µM with NCI-H226 lung; 82.4 µM in the test with U251 CNS; 50.9 µM in the test with OVCAR-3 ovarian. For the same compound, the TGI with OVCAR-5 ovarian stood at 79.2 µM.

With `CCCCCCOc1ccc(NC2=C(Cl)C(=O)c3ncccc3C2=O)cc1`, the TGI with SF-539 CNS is 3.3 µM; in the test with HS 578T breast, 9 µM; in the test with PC-3 prostate, 3.97 µM; in the test on 786-0 renal it was 5.75 µM; in the test on NCI-H226 lung, over 10 µM; with U251 CNS, 3.08 µM. Besides, the TGI in the test with OVCAR-3 ovarian was 6.25 µM; in the test with OVCAR-5 ovarian, over 10 µM.

For `COc1ccc2c(c1)-c1oc3ccccc3c(=O)c1CO2`, the TGI in the test on SF-539 CNS, in the test on PC-3 prostate, with 786-0 renal, in the test on NCI-H226 lung, with NCI/ADR-RES ovarian and in the test with U251 CNS was over 100 µM each time. Moreover, the TGI in the test on OVCAR-3 ovarian and in the test with OVCAR-5 ovarian was over 100 µM in each case.

In the case of `COc1cc(CNc2nc3cc(C(F)(F)F)ccc3nc2C)cc(OC)c1OC`, the TGI in the test on SF-539 CNS was 62.2 µM; in the test with HS 578T breast it was 39.7 µM; with SR leukemia, 76.1 µM; in the test with U251 CNS it was 36.7 µM; in the test on OVCAR-3 ovarian, over 100 µM.

On to `COc1cc(-c2nc3nc(N4CCN(C)CC4)ccc3[nH]2)c(OC)c2[nH]c(COC(C)=O)nc12`, for which the TGI with SF-539 CNS was 35.4 µM; with HS 578T breast, over 100 µM; in the test on 786-0 renal, 72.4 µM; with SR leukemia, over 100 µM; with NCI/ADR-RES ovarian, over 100 µM; with U251 CNS, 46.5 µM. The same compound had a TGI with OVCAR-5 ovarian of over 100 µM.

In the case of `COc1ccc2c(c1)CC[C@@H]1[C@@H]2CC[C@]2(C)C(=O)/C(=C/c3cc(OC)c(OC)c(OC)c3)C[C@@H]12`, the TGI is 67 µM in the test on SF-539 CNS; 26.9 µM with PC-3 prostate; 39 µM in the test with 786-0 renal; over 100 µM with SR leukemia; 34.6 µM with NCI/ADR-RES ovarian; over 100 µM in the test on U251 CNS. The values for the TGI in the test with OVCAR-3 ovarian and in the test with OVCAR-5 ovarian were 33.7 µM and 62.4 µM, respectively.

As for `COC(=O)c1cccc(C(=O)OC)c1`, the TGI in the test on SR leukemia, in the test with NCI-H226 lung, with U251 CNS and with OVCAR-5 ovarian was over 100 µM in each case.

Take `CC(=O)NC1=C(C)C(=O)c2c(nc3n2CC[C@H]3OC(C)=O)C1=O`: the TGI stood at 4.38 µM in the test on SF-539 CNS; 9.21 µM with HS 578T breast; 1.99 µM in the test on PC-3 prostate; 4.32 µM in the test with 786-0 renal; 29.7 µM in the test with NCI-H226 lung; 15.6 µM in the test with NCI/ADR-RES ovarian. The values for the TGI in the test with U251 CNS, in the test with OVCAR-3 ovarian and in the test with OVCAR-5 ovarian were 3.22 µM, 1.4 µM and 7.34 µM, respectively.

As for `Nc1nc(SCCC/C=C/I)nc2c1ncn2C1OC(CO)C(O)C1O` (configuration not stated), the TGI in the test on SF-539 CNS, in the test on 786-0 renal, in the test on SR leukemia, in the test with NCI-H226 lung, in the test with U251 CNS and in the test with OVCAR-3 ovarian was over 202 µM throughout. This compound gave a TGI in the test with OVCAR-5 ovarian of over 202 µM.

Regarding `O=C(O)c1ccc(Nc2nc3ccccc3nc2C(=O)O)cc1`, the TGI in the test with SF-539 CNS, with HS 578T breast, with 786-0 renal, in the test on SR leukemia, in the test on NCI/ADR-RES ovarian and with U251 CNS was over 100 µM each time. Also, the TGI in the test with OVCAR-3 ovarian and with OVCAR-5 ovarian was over 100 µM in each case.

For `Cc1n(CC(=O)c2ccccc2)nc2sc(N)n[n+]12`, the TGI in the test on SF-539 CNS, with HS 578T breast, in the test with PC-3 prostate, in the test with 786-0 renal, in the test with NCI-H226 lung and with NCI/ADR-RES ovarian was over 100 µM in each case. Moreover, the TGI in the test with U251 CNS, with OVCAR-3 ovarian and in the test with OVCAR-5 ovarian was over 100 µM throughout.
